# According to patent US9089544B2, “Composition” (Slotervaart Participaties BV, priority 2007, dated 2015):
# Several values for one entry are separate records, joined by “and”; a condition that tells them apart may be missing. Identical values can stand only once.
# Key:
# [1] = cited from earlier work
# [2] = cited from earlier work; remark: listed apart in the source
# [3] = Docetaxel solubility (dissolution) test of formulations A to N in 25 mL WfI; type: physicochemical; conditions: 37° C., 720 rpm; for maximum docetaxel concentration / maximum docetaxel concentration as % of total docetaxel present: ±6 mg docetaxel
# Procedure: A magnetic stirring bar and 25 mL water were added to the beaker. The solution was stirred at 720 rpm, and kept at approximately 37° C. Samples were collected at various timepoints, and filtrated using a 0.45 μm filter before they were diluted with a 1:4 v/v mixture of methanol and acetonitrile. The filtrated and diluted samples were subsequently analyzed by HPLC-UV (see table 17).
# clinical [4] = conditions: human, in vivo, 100 mg
# Procedure: Oral ritonavir: 1 capsule with 100 mg ritonavir (Norvir®).
# Ritonavir dose: 1 capsule with 100 mg ritonavir (Norvir®).
# After drug administration blood samples were collected for pharmacokinetic analyses. A blank sample was taken before dosing. Blood samples were centrifuged, plasma was separated and immediately stored at −20° C. until analyses. Analysis were performed with validated HPLC methods in a GLP (Good Laboratory Practice) licensed laboratory. This concerns all pharmacokinetic studies presented here by the inventors.
# clinical [5] = conditions: human, in vivo, po, 100 mg
# Procedure: (§1) Pharmacokinetic (PK) analysis of the data generated from the above trial was performed using the NONMEM (non-linear mixed effect modelling) program (GloboMax LLC, Hanover, Md., USA) to produce a pharmacokinetic profile. This models the absorption, elimination and distribution of a drug using different compartments.
# (§2) This model uses three compartments and is well described by Bruno et al. [85].
# [6] = cited from earlier work; remark: listed apart in the source
# [7] = cited from earlier work; remark: listed apart in the source
# [8] = mice; cited from earlier work
# [9] = Clinical phase I trial: docetaxel liquid formulation versus MODRA capsules with ritonavir (Example 5); type: in vivo, human; conditions: 20 mg docetaxel liquid formulation, patient 306
# Procedure: 10 patients participated in an ongoing clinical phase I trial.
# The final mixture was transferred to a stainless steel lyophilisation box (Gastronorm size 1/3), t-butanol and water were subsequently removed by lyophilisation (see table. 16).
# Patients took the medication orally on an empty stomach in the morning with 100 mL tap water.
# Patients 307, 308, 309 and 310 received liquid formulation and/or MODRA. Cycles were administered in a weekly interval.
# According to institutional guidelines, for both oral and i.v. docetaxel all patients were treated with oral dexamethason. A dose of 4 mg dexamethason was given 1 hour prior to the study drugs, followed by 4 mg every 12 hours (2 times).
# A blank sample was taken before dosing.
# According to institutional guidelines, for both oral and i.v. docetaxel, all patients were treated with oral dexamethason. A dose of 4 mg dexamethason was given 1 hour prior to the study drugs, followed by 4 mg every 12 hours (2 times).
# [10] = human, in vivo
# Procedure: as §1, §2
# [11] = oral docetaxel 75 mg/m^2, CsA 15 mg/kg
smiles,measurement,setting,value
CC(=O)O[C@H]1C(=O)[C@@]2(C)[C@H]([C@H](OC(=O)c3ccccc3)[C@]3(O)C[C@H](OC(=O)[C@H](O)[C@@H](NC(=O)c4ccccc4)c4ccccc4)C(C)=C1C3(C)C)[C@]1(OC(C)=O)CO[C@@H]1C[C@@H]2O [paclitaxel],"increase of AUC in knockout mice compared with wild-type mice, i.v. administration",[1]; mdr1a P-gp knockout mice,twofold
same,"increase of AUC in knockout mice compared with wild-type mice, oral administration",[1]; mdr1a P-gp knockout mice,sixfold
same,oral bioavailability in wild-type mice when CsA was coadministered,"[1]; mouse, in vivo, po",67%
same,oral bioavailability in wild-type mice with GF120918,"[1]; mouse, in vivo, po",40%
same,"oral bioavailability in wild-type mice, paclitaxel alone","[1]; mouse, in vivo, po",9% and 8.5%
same,"fraction of unchanged paclitaxel recovered from the faeces, mdr1a P-gp knockout mice",[1]; oral administration,3%
same,apparent bioavailability of oral paclitaxel with CsA,"[2]; 60 mg/m^2 oral paclitaxel, 15 mg/kg CsA",47%
same,apparent bioavailability of oral paclitaxel without CsA,[2]; 60 mg/m^2 oral paclitaxel,4%
same,maximum tolerated dose,[2]; oral paclitaxel in combination with CsA,300 mg/m^2
"CC(=O)O[C@@]12CO[C@@H]1C[C@H](O)[C@@]1(C)C(=O)[C@H](O)C3=C(C)[C@@H](OC(=O)[C@H](O)[C@@H](NC(=O)OC(C)(C)C)c4ccccc4)C[C@@](O)([C@@H](OC(=O)c4ccccc4)[C@H]21)C3(C)C [Formulation A, docetaxel]",equilibrium docetaxel concentration,[3],approximately 6 μg/mL
same,equilibrium docetaxel concentration as % of total docetaxel present,[3],~2%
same,time at which equilibrium concentration is reached,[3],15 min
same,time of stirring at which maximum concentration is reached,[3],5 min
same,maximum docetaxel concentration,[3],approximately 12 μg/mL
same,maximum docetaxel concentration as % of total docetaxel present,[3],~4.7%
"CC(=O)O[C@@]12CO[C@@H]1C[C@H](O)[C@@]1(C)C(=O)[C@H](O)C3=C(C)[C@@H](OC(=O)[C@H](O)[C@@H](NC(=O)OC(C)(C)C)c4ccccc4)C[C@@](O)([C@@H](OC(=O)c4ccccc4)[C@H]21)C3(C)C [Formulation B, docetaxel]",solubility from 10 to 60 minutes,[3],comparable to formulation A
same,time of stirring at which maximum concentration is reached,[3],0.5 min
same,maximum docetaxel concentration,[3],32 µg/mL
same,maximum docetaxel concentration as % of total docetaxel present,[3],13%
CC(C)c1nc(CN(C)C(=O)N[C@H](C(=O)N[C@@H](Cc2ccccc2)C[C@H](O)[C@H](Cc2ccccc2)NC(=O)OCc2cncs2)C(C)C)cs1 [ritonavir],Ritonavir Cmax Simultaneous,clinical [4]; po,200 ng/mL
CC(=O)O[C@@]12CO[C@@H]1C[C@H](O)[C@@]1(C)C(=O)[C@H](O)C3=C(C)[C@@H](OC(=O)[C@H](O)[C@@H](NC(=O)OC(C)(C)C)c4ccccc4)C[C@@](O)([C@@H](OC(=O)c4ccccc4)[C@H]21)C3(C)C [docetaxel],bioavailability,clinical [5],14%
same,apparent bioavailability of oral docetaxel with CsA,[6]; [11],90%
same,increase of the systemic exposure of docetaxel with oral CsA,[6]; [11],7.3 fold
same,apparent bioavailability of oral docetaxel without CsA,[6]; oral docetaxel 75 mg/m^2,8%
same,inter- and intra-patient variabilities in the AUC of docetaxel,"[6]; range observed after i.v. administration, oral in the same range",29%-53%
same,docetaxel AUC,"[7]; 100 mg oral docetaxel + CsA 15 mg/kg, weekly",about 2.3 mg·h/L
same,overall response rate,"[7]; weekly 100 mg oral docetaxel + CsA 15 mg/kg, breast cancer",50% and 52%
same,apparent bioavailability without ritonavir,[8],4%
same,increase of AUC of oral docetaxel by coadministration with CsA,[8],ninefold
same,increase of docetaxel AUC by second boosting dose of 100 mg ritonavir 4 hours after docetaxel,[9],1.5 fold
same,"volume of the central compartment, oral administration",[10],~60 L
same,AUC,"clinical [4]; iv, AUC IV day 15",2100 ng·h/mL
same,Tmax,"clinical [4]; iv, Tmax IV day 15",48 min
same,AUC,"clinical [4]; po, AUC docetaxel oral without ritonavir",290 ± 260 ng·h/mL
